Laboratory results published in the supplement of paper PMC10307832.

Experiments:
Assay in all cases: relative viability (nuclei count vs DMSO), 5 days (fraction); higher = more cells survive
[1] = compound: C1CSC2=C(C(=O)N1)SC3=C2C=C(C=C3)O [kb NB 142-70] + Cc1cc(Nc2cc(N3CCN(C)CC3)nc(Sc3ccc(NC(=O)C4CC4)cc3)n2)n[nH]1 [Tozasertib] (partner 0.1 µM)
Procedure, shortened: (§1)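 A single step with final 0.05% Triton X-100, 1% formaldehyde and 1 ug/ml Hoechst fixed the cells and stained nuclei 5 days after treatment. Lung cancer cell lines in 1536-well plates had been treated by pin tool the day after seeding with one drug alone or a fixed anchor-drug dose plus five library-drug doses (not always all listed) in √10 steps, and nuclei were counted on 4× images. Relative viability is the ratio of nuclei in treated wells to nuclei in vehicle wells, taken as the median of duplicate plates.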

[2] = compound: NCC(=O)Nc1ccc(-n2nc(C(F)(F)F)cc2-c2ccc3c(ccc4ccccc43)c2)cc1 + CC(=O)Nc1cccc(-n2c(=O)n(C3CC3)c(=O)c3c(Nc4ccc(I)cc4F)n(C)c(=O)c(C)c32)c1 [Trametinib] (partner 0.02 µM)
Procedure, shortened: as §1

[3] = compound: NCC(=O)Nc1ccc(-n2nc(C(F)(F)F)cc2-c2ccc3c(ccc4ccccc43)c2)cc1 + COc1cc2c(Oc3ccc(NC(=O)C4(C(=O)Nc5ccc(F)cc5)CC4)cc3F)ccnc2cc1OCCCN1CCOCC1 [Foretinib] (partner 0.25 µM)
Procedure, shortened: as §1

[4] = compound: C1CSC2=C(C(=O)N1)SC3=C2C=C(C=C3)O [kb NB 142-70] + N=C(N)NC(=N)NCCc1ccccc1 [Phenformin] (partner 250 µM)
Procedure, shortened: as §1

| Cell Line | relative viability ([1]; first compound 0.1 µM) | relative viability ([1]; first compound 1 µM) | relative viability ([1]; first compound 3.162 µM) | relative viability ([2]; first compound 0.02 µM) | relative viability ([2]; first compound 0.06325 µM) | relative viability ([2]; first compound 0.2 µM) | relative viability ([2]; first compound 0.6325 µM) | relative viability ([2]; first compound 2 µM) | relative viability ([3]; first compound 0.02 µM) | relative viability ([3]; first compound 0.06325 µM) | relative viability ([3]; first compound 0.2 µM) | relative viability ([3]; first compound 0.6325 µM) | relative viability ([3]; first compound 2 µM) | relative viability ([4]; first compound 0.1 µM) | relative viability ([4]; first compound 1 µM) | relative viability ([4]; first compound 3.162 µM) |
| --- | --- | --- | --- | --- | --- | --- | --- | --- | --- | --- | --- | --- | --- | --- | --- | --- |
| 201T | 0.875 | 0.974 | 1.03 | 0.692 | 0.717 | 0.747 | 0.725 | 0.696 | 1.12 | 1.2 | 1.17 | 1.1 | 1.15 | 0.453 | 0.418 | 0.492 |
| A549 | – | – | – | – | – | – | – | – | 0.923 | 0.956 | 0.917 | 1.01 | 0.971 | 0.129 | 0.193 | 0.166 |
| A-427 | 0.252 | 0.221 | 0.195 | 0.722 | 0.787 | 0.866 | 0.721 | 0.783 | – | 1.2 | 1.1 | 1.11 | 0.959 | 0.466 | 0.37 | 0.248 |
| ABC-1 | 0.178 | 0.165 | 0.169 | – | – | – | – | – | 1.29 | 1.15 | – | 0.988 | 1.2 | 0.223 | 0.24 | 0.166 |
| BEN | 0.459 | 0.455 | 0.437 | 0.861 | 1.15 | 1.05 | 0.938 | 1.11 | 0.635 | 0.602 | 0.561 | 0.681 | 0.657 | 0.25 | 0.263 | 0.239 |
| CAL-12T | 0.36 | 0.395 | 0.267 | 0.304 | 0.401 | 0.394 | 0.339 | 0.362 | 1.28 | 1.29 | 1.15 | 1.14 | 1.12 | 0.565 | 0.601 | 0.485 |
| COR-L23 | 0.237 | 0.157 | 0.134 | 0.593 | 0.637 | 0.568 | 0.549 | 0.491 | 0.982 | 0.912 | 1.13 | 1.04 | 0.973 | 0.416 | 0.426 | 0.258 |
| COR-L 105 | 0.319 | 0.287 | 0.255 | 0.456 | 0.482 | 0.491 | 0.416 | 0.432 | 1.15 | 1.26 | 1.14 | 0.985 | 1.04 | 0.428 | 0.534 | 0.486 |
| Calu-6 | – | – | – | – | – | – | – | – | 0.843 | 0.87 | 0.857 | 0.896 | 0.891 | – | – | – |
| ChaGo-K-1 | 0.244 | 0.246 | 0.219 | 0.832 | 0.903 | 0.882 | 0.83 | 0.842 | 0.866 | 0.956 | 0.847 | 0.937 | 0.77 | 0.513 | 0.49 | 0.453 |
| EBC-1 | – | – | – | – | – | – | – | – | 0.0952 | 0.0845 | 0.105 | 0.0991 | 0.0847 | – | – | – |
| EKVX | 0.353 | 0.382 | 0.466 | 0.408 | 0.356 | 0.428 | 0.366 | 0.369 | 0.905 | 1.05 | 0.602 | 0.77 | 0.626 | 0.24 | 0.238 | 0.244 |
| EMC-BAC-2 | 0.303 | 0.302 | 0.261 | 0.824 | 0.909 | 0.877 | 0.96 | 0.887 | 0.957 | 0.966 | 1.02 | 1.09 | 1.05 | 0.524 | 0.501 | 0.38 |
| EPLC-272H | 0.353 | 0.217 | 0.143 | 0.269 | 0.297 | 0.305 | 0.299 | 0.303 | 0.686 | 0.688 | 0.752 | 0.581 | 0.79 | 0.38 | 0.267 | 0.189 |
| H3255 | 0.534 | 0.785 | 0.746 | 0.642 | 0.579 | 0.592 | 0.629 | 0.674 | 0.823 | 1.04 | 0.858 | 1.11 | 0.89 | 0.358 | 0.362 | 0.371 |
| HARA | 0.0886 | 0.112 | 0.0824 | 0.792 | 0.771 | 0.586 | 0.659 | 0.919 | 0.976 | 0.991 | 0.889 | 0.961 | 0.974 | 0.486 | 0.473 | 0.344 |
| HCC-15 | 0.427 | 0.471 | 0.227 | 0.386 | 0.416 | 0.447 | 0.369 | 0.363 | 1.07 | 1.04 | 1.08 | 1.1 | 1.07 | 0.476 | 0.491 | 0.518 |
| HCC-44 | 0.728 | 0.901 | 0.722 | 0.792 | 1.1 | 1.05 | 1.11 | 1.02 | – | – | – | – | – | 0.405 | 0.256 | 0.148 |
| HCC-78 | 0.389 | 0.468 | 0.411 | 0.755 | 0.807 | 0.804 | 0.788 | 0.705 | 0.551 | 0.565 | 0.52 | 0.577 | 0.621 | 0.72 | 0.673 | 0.651 |
| HCC-366 | 0.122 | 0.176 | 0.118 | 0.361 | 0.408 | 0.467 | 0.354 | 0.271 | 0.918 | 0.911 | 0.984 | 0.924 | 0.992 | 0.637 | 0.588 | 0.604 |
| HCC-827 | 0.418 | 0.429 | 0.367 | 0.572 | 0.584 | 0.58 | 0.553 | 0.521 | 1.1 | 1.09 | 0.98 | 0.991 | 1.08 | 0.415 | 0.387 | 0.339 |
| HOP-62 | 0.314 | 0.315 | 0.245 | 0.395 | 0.378 | 0.378 | 0.368 | 0.336 | 1.19 | 1.16 | 0.966 | 1.01 | 1.04 | 0.666 | 0.663 | 0.534 |
| IA-LM | – | – | – | – | – | – | – | – | 1.26 | 1.05 | 1.14 | 1.01 | 1.19 | – | – | – |
